Source: ChEMBL document CHEMBL3991601, “The target landscape of clinical kinase drugs” (Science, 2017)
Calls of active or inactive are those of the source.

Tests used:
[1] = target: T1, Peroxisomal acyl-coenzyme A oxidase 1 (Homo sapiens, UniProt Q15067)
T1 sequence (Q15067 whole entry): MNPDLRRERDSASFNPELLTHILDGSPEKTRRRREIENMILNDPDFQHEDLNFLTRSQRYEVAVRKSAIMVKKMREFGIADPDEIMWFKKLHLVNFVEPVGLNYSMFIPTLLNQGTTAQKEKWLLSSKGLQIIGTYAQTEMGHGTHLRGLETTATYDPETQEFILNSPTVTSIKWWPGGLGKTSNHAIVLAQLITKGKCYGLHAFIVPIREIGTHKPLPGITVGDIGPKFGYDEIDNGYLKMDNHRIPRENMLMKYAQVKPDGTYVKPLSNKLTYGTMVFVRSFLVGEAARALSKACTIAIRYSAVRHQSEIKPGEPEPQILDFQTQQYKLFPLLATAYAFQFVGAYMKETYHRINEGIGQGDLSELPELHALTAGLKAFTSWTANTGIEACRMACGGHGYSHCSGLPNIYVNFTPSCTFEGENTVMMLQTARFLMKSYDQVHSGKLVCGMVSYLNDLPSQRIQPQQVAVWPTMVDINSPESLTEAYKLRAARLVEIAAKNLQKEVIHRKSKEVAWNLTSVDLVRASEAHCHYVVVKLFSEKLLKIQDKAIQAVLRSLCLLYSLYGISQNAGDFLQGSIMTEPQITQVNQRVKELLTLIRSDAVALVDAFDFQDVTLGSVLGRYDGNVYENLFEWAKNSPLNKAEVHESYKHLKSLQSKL

[2] = target: T2, Mitogen-activated protein kinase kinase kinase 3 (Homo sapiens, UniProt Q99759)
T2 sequence (Q99759 whole entry): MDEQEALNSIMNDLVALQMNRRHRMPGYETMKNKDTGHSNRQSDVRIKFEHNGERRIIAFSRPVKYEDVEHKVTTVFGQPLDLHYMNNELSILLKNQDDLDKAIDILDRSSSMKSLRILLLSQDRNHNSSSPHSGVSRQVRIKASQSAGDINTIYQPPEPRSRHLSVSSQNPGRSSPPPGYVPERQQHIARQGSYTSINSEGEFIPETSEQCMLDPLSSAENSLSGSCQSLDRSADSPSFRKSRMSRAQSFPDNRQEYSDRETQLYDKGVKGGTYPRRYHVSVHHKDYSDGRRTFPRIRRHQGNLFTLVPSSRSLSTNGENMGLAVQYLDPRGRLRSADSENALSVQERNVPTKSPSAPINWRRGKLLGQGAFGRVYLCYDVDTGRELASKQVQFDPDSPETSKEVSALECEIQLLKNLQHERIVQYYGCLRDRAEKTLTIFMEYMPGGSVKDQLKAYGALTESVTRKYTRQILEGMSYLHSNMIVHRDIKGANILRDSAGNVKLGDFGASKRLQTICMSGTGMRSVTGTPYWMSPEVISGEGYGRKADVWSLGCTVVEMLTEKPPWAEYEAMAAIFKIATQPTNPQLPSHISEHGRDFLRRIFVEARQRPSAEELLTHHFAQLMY

[3] = target: Casein kinase I isoform gamma-1 (Homo sapiens, UniProt Q9HCP0)
Casein kinase I isoform gamma-1, sequence (Q9HCP0 whole entry, canonical isoform): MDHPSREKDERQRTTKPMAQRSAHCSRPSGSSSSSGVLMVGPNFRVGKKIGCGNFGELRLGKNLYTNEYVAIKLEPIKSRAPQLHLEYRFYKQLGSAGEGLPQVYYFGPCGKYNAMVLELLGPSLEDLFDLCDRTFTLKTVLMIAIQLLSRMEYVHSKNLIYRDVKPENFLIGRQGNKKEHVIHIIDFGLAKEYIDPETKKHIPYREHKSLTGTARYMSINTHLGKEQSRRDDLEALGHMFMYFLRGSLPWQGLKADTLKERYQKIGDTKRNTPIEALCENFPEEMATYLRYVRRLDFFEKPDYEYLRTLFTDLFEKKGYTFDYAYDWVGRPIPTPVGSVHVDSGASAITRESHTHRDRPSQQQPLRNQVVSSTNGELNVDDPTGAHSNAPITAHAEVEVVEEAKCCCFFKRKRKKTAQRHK

Ephrin type-B receptor 2 = target: T3, Ephrin type-B receptor 2 (Homo sapiens, UniProt P29323)
T3 sequence (P29323 whole entry): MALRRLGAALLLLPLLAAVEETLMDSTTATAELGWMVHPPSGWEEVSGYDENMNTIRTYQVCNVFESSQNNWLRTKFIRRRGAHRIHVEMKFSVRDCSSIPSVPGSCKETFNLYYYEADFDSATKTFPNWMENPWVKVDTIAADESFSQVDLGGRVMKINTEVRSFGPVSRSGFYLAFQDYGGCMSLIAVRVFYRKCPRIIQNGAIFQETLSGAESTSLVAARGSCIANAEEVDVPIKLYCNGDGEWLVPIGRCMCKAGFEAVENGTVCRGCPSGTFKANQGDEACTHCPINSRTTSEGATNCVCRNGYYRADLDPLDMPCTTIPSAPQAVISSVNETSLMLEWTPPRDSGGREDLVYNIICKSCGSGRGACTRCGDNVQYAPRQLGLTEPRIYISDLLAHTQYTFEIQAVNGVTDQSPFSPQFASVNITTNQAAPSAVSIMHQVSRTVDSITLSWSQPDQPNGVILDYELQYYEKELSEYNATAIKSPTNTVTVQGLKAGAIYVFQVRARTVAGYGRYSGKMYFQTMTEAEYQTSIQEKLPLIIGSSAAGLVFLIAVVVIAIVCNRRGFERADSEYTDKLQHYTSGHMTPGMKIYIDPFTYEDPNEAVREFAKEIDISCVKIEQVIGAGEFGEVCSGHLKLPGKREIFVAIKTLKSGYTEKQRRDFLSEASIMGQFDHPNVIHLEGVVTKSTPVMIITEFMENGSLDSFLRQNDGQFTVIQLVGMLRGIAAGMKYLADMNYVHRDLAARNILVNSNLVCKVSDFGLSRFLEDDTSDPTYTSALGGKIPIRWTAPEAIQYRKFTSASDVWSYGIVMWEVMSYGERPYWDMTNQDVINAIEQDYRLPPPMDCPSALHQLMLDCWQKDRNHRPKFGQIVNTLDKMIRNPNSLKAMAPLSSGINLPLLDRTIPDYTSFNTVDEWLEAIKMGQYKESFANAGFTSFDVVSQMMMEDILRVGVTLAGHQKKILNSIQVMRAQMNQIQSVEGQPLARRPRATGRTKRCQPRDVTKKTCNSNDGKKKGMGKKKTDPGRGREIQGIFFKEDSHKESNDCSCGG

Activin receptor type-2B = Activin receptor type-2B (Homo sapiens, UniProt Q13705)
Activin receptor type-2B, sequence (Q13705 whole entry): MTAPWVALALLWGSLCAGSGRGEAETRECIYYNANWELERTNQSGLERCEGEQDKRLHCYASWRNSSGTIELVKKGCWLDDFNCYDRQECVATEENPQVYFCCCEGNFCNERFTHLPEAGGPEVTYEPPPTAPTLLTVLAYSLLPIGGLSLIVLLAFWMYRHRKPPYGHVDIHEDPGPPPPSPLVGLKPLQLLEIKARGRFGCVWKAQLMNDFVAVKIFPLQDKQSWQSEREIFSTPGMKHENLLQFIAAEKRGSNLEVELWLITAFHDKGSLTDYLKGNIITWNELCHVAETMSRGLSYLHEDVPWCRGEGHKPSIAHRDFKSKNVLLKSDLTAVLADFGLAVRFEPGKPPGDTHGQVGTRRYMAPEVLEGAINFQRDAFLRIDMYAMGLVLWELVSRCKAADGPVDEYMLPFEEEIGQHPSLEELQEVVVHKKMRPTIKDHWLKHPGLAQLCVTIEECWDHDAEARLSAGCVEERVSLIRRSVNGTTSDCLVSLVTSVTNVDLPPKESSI
Further: in the data inactive means no Kd found up to 30 µM.

SMILES	Kd [1]	Kd [2]	Kd [3]	Kd (Ephrin type-B receptor 2)	Kd (Activin receptor type-2B)
CNS(=O)(=O)Nc1nccc(Cc2c(C)c3ccc(Oc4ncccn4)cc3oc2=O)c1F [AVUTOMETINIB]	> 30 µM (inactive)	> 30 µM (inactive)	> 30 µM (inactive)	> 30 µM (inactive)	> 30 µM (inactive)
C[C@@H](Nc1cc(F)cc(F)c1)c1cc(C(=O)N(C)C)cc2c(=O)cc(N3CCOCC3)oc12 [AZD-8186]	> 30 µM (inactive)	> 30 µM (inactive)	> 30 µM (inactive)	> 30 µM (inactive)	> 30 µM (inactive)
CN1CCC(CNc2ccc3ncc(-c4cccc(OC(F)(F)F)c4)n3n2)CC1 [SGI-1776]	> 30 µM (inactive)	> 30 µM (inactive)	> 30 µM (inactive)	> 30 µM (inactive)	> 30 µM (inactive)
CCCS(=O)(=O)Nc1ccc(F)c(C(=O)c2c[nH]c3ncc(-c4ccc(Cl)cc4)cc23)c1F [VEMURAFENIB]	> 30 µM (inactive)	> 30 µM (inactive)	> 30 µM (inactive)	> 30 µM (inactive)	> 30 µM (inactive)
C=CC(=O)N1CCC(Oc2cc3c(Nc4ccc(Cl)c(Cl)c4F)ncnc3cc2OC)CC1 [POZIOTINIB]	> 30 µM (inactive)	> 30 µM (inactive)	> 30 µM (inactive)	2.24 µM (active)	> 30 µM (inactive)
